Experimental findings from US20220162257A1, “3ALPHA, 5BETA-NEUROACTIVE STEROIDS FOR THE TREATMENT OF EPILEPSY AND SEIZURE DISEASES” (USTAV ORGANICKE CHEMIE A BIOCHEMIE AV CR, V. V. I., priority 2019, published 2022) are described below.

Holding throughout (format): in vivo, rat
Series [1] deals with seizures elicited by 6 Hz stimulation in rats. The series is described as follows: 6 Hz transcorneal electrical stimulation seizure model in rats. As for the experimental part:
(§1) Anticonvulsant effect of compounds was evaluated in two models of epileptic seizures in immature rats (PTZ model and 6 Hz model). PTZ convulsions were tested in 12- and 25-day-old rats, 6 Hz-induced seizures in 15- and 25-day-old rats. Young adult rats (P60) were also used in either test. Day of birth was taken as P0. Experiments evaluating precognitive effect were performed in adult male rats of the Wistar and Long Evans strain (3 months old, b.w. 300-400 g). All animals were obtained from a breeding facility of Institute of Physiology CAS (certificate No. 1396/2014-MZE-17214) Animals were held in standard conditions (21±1° C., humidity 50-60%, light regime 12/12) with unrestricted access to food and water. All manipulations with animals were performed according to the https://nc3rs.org.uk/arrive-guidelines and to Czech Animal Protection Law 246/1992 Sb. And international directives (EU Directive 2010/63/EU for animals' experiments).
Two age groups of immature male Wistar rats were used in either experiment. In PTZ model P12 corresponding by a maturation of the brain to early postnatal human babies, i.e. to the period where children epileptic encephalopathy mostly resistant to present pharmacotherapy start to appear. The other group—P25 animals corresponds with school-age children. Generalized tonic-clonic seizures were elicited by a subcutaneous injection of PTZ in a dose of 100 mg/kg. The 6 Hz model was tested in P15 (at this age eyes are open and it is not necessary to surgically distract lids). Biphasic pulses with […] were applied transcorneally for 3 s by a constant current stimulator of Ugo Basile company. PTZ induced generalized seizures represent a model of human generalized tonic-clonic seizures, seizures elicited by 6 Hz stimulation are generally taken as a model of temporal (psychomotor, complex partial) seizures. Differences in latencies and seizure severity were evaluated by ANOVA with a subsequent pairwise comparison by Holm-Sidak test. Incidence of seizures were evaluated by Fischer exact test. Critical p value was set at p=0.05.
Younger group was formed by 15-day-old animals—the animals at this age have open eyes and it is not necessary to distract eyelids surgically. The other group was 25 days old. Sensitivity of these two age groups is different, therefore we used current intensities of 40, 60, and 80 mA in 15-day-old rats and 20, 40, and 60 mA in the 25-day-old animals. Stimulations were made in 20-min intervals, 10 min before each stimulation a drop of mesocaine into either eye was used as a local anesthetic. Steroid derivatives in a dose of 10 mg/kg i.p. were administered 20 min before the first stimulation. Seizures elicited by 60-mA intensity of stimulation current were suppressed, those elicited by 80 mA not.

The subject of series [2] is anxiety parameters in rats. The experiment in a line: Elevated plus maze test (EPM). Particulars: 10 mg/kg i.p., 30 minutes before maze testing. The procedure: as §1
Behavioral models of the affective disorders are based on exposure to stress. […]
In the EPM test, the Compound from Example 1 was administered at doses of 1, 3 and 10 mg/kg, i.p. 30 minutes before maze testing. Time spent in open arms, closed arms, and central platform were recorded during a 10-min test session.

The next series relates to memory in rats. The experiment in a line: Passive avoidance test, intact animals and dizocilpine (MK-801) schizophrenia-like behavior. The procedure:
as §1
Schizophrenia-like behavior was induced by i.p. administration of dizocilpine (MK-801) at a dose of 0.1 mg/kg. The effect of the Compound from Example 1 was tested in Passive avoidance test (Psychopharmacology (Berl). 2016, 233, 2077). This test allows to study memory and learning ability. The Compound from Example 1 was applied for 30 min i.p. before the task in doses of 0.1; 1 and 3 mg/kg.

Series [3] relates to NMDA lesion of the dorsal hippocampus in male rats. The series is described as follows: bilateral excitotoxic NMDA lesion of the dorsal hippocampus. Conditions: 1 mg/kg i.p. 5 minutes after NMDA lesion, evaluated 24 h. The procedure:
The tissue damage is induced by infusing NMDA (25 mmol.L^−1) into the dorsal hippocampus in the male rats. The figures in panel (FIG. 9A) show representative images of brain slices of control animals, in panel (FIG. 9B) the group of animals which were administered the solutions containing NMDA into dorsal hippocampus (NMDA lesion) and i.p. treated by (2-hydroxypropyl)-β-cyclodextrin (CDX) and in panel (FIG. 9C) brain slices of the animals, with NMDA lesions of the dorsal hippocampus and i.p. treated by the Compound of Example 1 at a dose of 1 mg/kg dissolved in CDX.
The neuroprotective effect of the Compound from Example 1 was tested in the model of bilateral excitotoxic lesion of the dorsal hippocampus. The procedure was performed according to literature (Neuropharmacology 2011, 61, 61). This model simulates the overstimulation of NMDA receptors that occurs in the number of pathophysiological states, leading to calcium flow into the neuron's and, consequently, to apoptosis […] necrosis. Clinically, this phenomenon is manifested by neurodegeneration and CNS damage. Rats were randomly divided into three groups. […] Histological damage, e.g. the neuroprotective effect of Compound from Example 1 was evaluated by staining damaged neurons with Fluoro Jade B (Merck Millipore, Catalog Number AG310-30MG), and evaluated areas included: hippocampus-DG, hilus, CA3, CA1.

Regarding `CC(=O)[C@H]1CC[C@H]2[C@@H]3CC[C@@H]4C[C@H](OC(=O)C5CCC(=O)N5)CC[C@]4(C)[C@H]3CC[C@]12C` (stereo partly drawn) [Example 1, (3R,5R,8R,9S,10S,13S,14S,17S)-17-Acetyl-10,13-dimethylhexadecahydro-1H-cyclopenta[a]fenantren-3-yl 5-oxopyrrolidine-2-carboxylate], the seizure severity entry in series [1] (P15 rats, 10 mg/kg i.p.) is listed as “not affected”. For the same compound, the duration of seizures result is given as “significantly shortened at both current intensities” in series [1] (P15 rats, 60 and 80 mA, 10 mg/kg i.p.); “significantly shorter” in series [1] (P25 rats, 10 mg/kg i.p.). The incidence of seizures entry in series [1] (P15 rats, 60 mA, 10 mg/kg i.p.) is given as “suppressed”; in series [1] (P25 rats, 10 mg/kg i.p.), “tendency to a decreased incidence of seizures”. The “incidence of seizures (suppressed or not)” value in series [1] (P15 rats, 80 mA, 10 mg/kg i.p.) is “not”. Besides, in series [1] (P25 rats, 10 mg/kg i.p.), the “seizure intensity (severity)” value is “lower intensity”. Besides, the “changes of the threshold intensity” value in series [1] (adult (P60) rats, 1, 5, 10 mg/kg i.p., tendency after 10 mg/kg) was “did not reach the level of significance”. Moreover, the anxiety parameters result in series [2] is given as “significant reduction of anxiety parameters”. Also, the “memory damage measured 1 h after the stimulus” value in the series on memory in rats (dizocilpine 0.1 mg/kg, compound 0.1 mg/kg i.p.) is given as “prevented memory damage”. Besides, the “memory one hour after the aversive stimulus” value with memory in rats (intact animals, 0.1, 1 and 3 mg/kg i.p.) is on record as “does not impair memory”. The “dorsal hippocampus damage (Fluoro Jade B staining)” value in series [3] was “significant reduction in the dorsal hippocampus damage”.
